Measurements published in patent US10947196B2, “Beta adrenergic agonist and methods of using the same” (CURASEN THERAPEUTICS, INC., priority 2019, dated 2021).
Like-named read-outs stand apart in the source and are kept apart here.

Tests used:
Type in all cases: cell-based
β1-adrenergic receptor = β1-adrenergic receptor (Homo sapiens (Human), UniProt P08588); test: cAMP Gs dynamic HTRF assay, β1 expressing CHO cells; settings: B1-AR
Summary of the method: (§1)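 Intracellular cAMP quantified by Eu-donor/d2-acceptor HTRF after 30 min compound exposure at 37° C in stimulation buffer with IBMX. Concentrations ran 10 μM top, 5-fold steps, 10 points. Cell lines: 1321N1 astrocytoma and CHO expressing β1 or β2; EC50 via four-parameter fit, relative efficacy against isoproterenol.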

[1] = molecular target: β2 adrenergic receptors in human astrocytoma cells (1321N1) (Homo sapiens (Human), UniProt P07550); test: cAMP HTRF assay in human astrocytoma cells (1321N1)
Method: cAMP homogeneous time-resolved fluorescence (HTRF). Compound efficacy was determined using the cAMP Gs dynamic HTRF assay (Cisbio, catalog #62AM4PEC) largely following the manufacturer's instructions, also detailed below.
Compound preparation. […] Standard serial dilution curves were 10-point, 5-fold dilutions starting from a highest concentration of 10 μM. […] Assay plates were centrifuged at 500×g for 10 seconds. Compounds and IBMX were prepared at 2× final dose to compensate for addition of cells.
Cell preparation. 1× stimulation buffer, washing PBS (Dulbecco's phosphate-buffered saline, −Mg −Ca; Caisson Labs, catalog #PBL01), assay PBS (Dulbecco's phosphate-buffered saline, +Mg, +Ca; Caisson Labs, catalog #PBL02) and Versene (0.02% EDTA disodium salt solution in PBS without calcium or magnesium; Caisson Labs, catalog #EDL01) were pre-warmed to 37° C. Cells expressing beta-adrenergic receptor were washed in washing PBS to remove growth medium and then released from the surface by incubating with Versene for 5-10 minutes at 37° C. Cells were harvested using assay PBS, counted manually by hemocytometer or by an automated cell counter, pelleted by centrifugation (200×g, 5 minutes) and resuspended in 37° C. 1× stimulation buffer to a final density of 1.5×10^6 cells/mL. 5 μL of the suspended cell solution (7500 cell total) were added to all wells of the 384 well assay plate, the assay plate was covered with an Axygen® plate seal (Corning PCR-SP) and incubated in a humidified 37° C. environment supplemented with 5% CO2 for 30 minutes.
HTRF reagent addition, reading and data analysis. After 30 minutes of cell stimulation with test compound, the assay plates were centrifuged at 500×g for 10 seconds, and incubation was stopped with the addition of 5 μL cAMP-D2 acceptor, diluted 1:21 in detection and lysis buffer 2 (Cisbio 62CL2FDF) was added to all cells. Subsequently, 5 μL Anti-cAMP-Eu Donor, diluted 1:21 in detection and lysis buffer 2, was added to cells. Plates were sealed and reactions gently ‘vortexed’ at 900 rpm on a Heidolph Titramax 1000 for at least 30 minutes at room temperature. Plates were centrifuged again at 500×g for 10 seconds, and HTRF was measured using a Tecan Spark plate reader at 50 flashes per well. […] Potency estimates (EC50) were derived from the four-parameter nonlinear regression of the concentration-effect curve and an estimate of relative efficacy was determined by comparing the magnitude of the test compound HTRF signal window (min−max dose) with the signal window of the full agonist control, isoproterenol.

B3-AR = B3-AR (Homo sapiens (Human), UniProt P13945); test: cAMP potency assay, B3-AR expressing CHO-K1 cells
β2 adrenergic receptor = β2 adrenergic receptor (Homo sapiens (Human), UniProt P07550); test: cAMP Gs dynamic HTRF assay, β2 expressing CHO cells; settings: B2-AR
Summary of the method: as §1

[2] = CHO-K1 (HitHunter), read-out: Average pEC50 [Receptor subtype: B1-AR, Cell type: CHO-K1 (HitHunter)] (converted)
[3] = CHO-K cells, read-out: Average EC50 [Receptor subtype: B1-AR, Cell type: CHO-K]
[4] = Endogenous receptor, 1321N1 cells, read-out: Average pEC50 [Receptor subtype: Endogenous, Cell type: 1321N1] (converted)
[5] = read-out: Average pEC50 [Receptor subtype: B3-AR, Cell type: CHO-K1] (converted)
[6] = CHO-K1 (HitHunter), read-out: Average pEC50 [Receptor subtype: B2-AR, Cell type: CHO-K1 (HitHunter)] (converted)
[7] = CHO-K cells, read-out: Average EC50 [Receptor subtype: B2-AR, Cell type: CHO-K]
[8] = Endogenous receptor, 1321N1 cells
[9] = Endogenous receptor, 1321N1 cells, read-out: Average EC50 [Receptor subtype: Endogenous, Cell type: 1321N1]
[10] = read-out: Average EC50 [Receptor subtype: B3-AR, Cell type: CHO-K1]

Chain of β1-adrenergic receptor (P08588 whole entry, species assumed): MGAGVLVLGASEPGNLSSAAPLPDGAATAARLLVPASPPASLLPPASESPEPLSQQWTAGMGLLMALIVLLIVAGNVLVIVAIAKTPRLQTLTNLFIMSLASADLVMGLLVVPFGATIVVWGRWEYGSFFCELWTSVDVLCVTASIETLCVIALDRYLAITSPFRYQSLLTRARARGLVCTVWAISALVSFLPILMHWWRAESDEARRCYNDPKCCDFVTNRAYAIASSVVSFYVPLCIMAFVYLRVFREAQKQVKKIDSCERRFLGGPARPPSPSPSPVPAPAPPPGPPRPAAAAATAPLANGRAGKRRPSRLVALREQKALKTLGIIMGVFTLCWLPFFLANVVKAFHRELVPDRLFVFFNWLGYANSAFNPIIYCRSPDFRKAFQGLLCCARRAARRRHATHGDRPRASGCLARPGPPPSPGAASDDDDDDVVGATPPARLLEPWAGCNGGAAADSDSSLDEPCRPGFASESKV
Chain of B3-AR (P13945 whole entry, species assumed): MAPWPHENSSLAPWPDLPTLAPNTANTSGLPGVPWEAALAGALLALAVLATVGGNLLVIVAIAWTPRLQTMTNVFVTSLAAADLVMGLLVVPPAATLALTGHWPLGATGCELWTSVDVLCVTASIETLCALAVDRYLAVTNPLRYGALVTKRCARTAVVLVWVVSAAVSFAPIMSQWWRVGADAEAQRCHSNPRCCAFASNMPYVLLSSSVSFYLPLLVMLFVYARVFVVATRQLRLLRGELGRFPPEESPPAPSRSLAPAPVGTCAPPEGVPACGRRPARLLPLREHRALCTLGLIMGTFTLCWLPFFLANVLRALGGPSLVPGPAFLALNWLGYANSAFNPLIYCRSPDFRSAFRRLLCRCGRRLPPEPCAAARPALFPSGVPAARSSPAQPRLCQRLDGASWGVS
Chain of β2 adrenergic receptor (P07550 whole entry, species assumed): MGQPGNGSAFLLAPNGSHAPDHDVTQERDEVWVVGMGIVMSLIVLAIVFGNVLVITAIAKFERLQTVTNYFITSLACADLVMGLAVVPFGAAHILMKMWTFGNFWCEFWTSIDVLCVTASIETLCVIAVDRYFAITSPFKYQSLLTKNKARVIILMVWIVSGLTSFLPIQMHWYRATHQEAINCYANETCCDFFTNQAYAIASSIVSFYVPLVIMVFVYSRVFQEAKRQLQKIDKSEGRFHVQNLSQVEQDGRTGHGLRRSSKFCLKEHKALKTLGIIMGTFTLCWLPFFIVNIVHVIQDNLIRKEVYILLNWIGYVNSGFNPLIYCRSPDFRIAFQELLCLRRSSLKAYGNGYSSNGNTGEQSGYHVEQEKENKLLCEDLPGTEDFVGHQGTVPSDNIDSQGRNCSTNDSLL
Chain of β2 adrenergic receptors in human astrocytoma cells (1321N1) (P07550 whole entry): as the sequence (P07550 whole entry, species assumed) above

SMILES	EC50 (β1-adrenergic receptor; [2]) [nM]	EC50 (β1-adrenergic receptor; [3]) [nM]	EC50 [1, 4] [nM]	EC50 (B3-AR; [5]) [nM]	EC50 (β2 adrenergic receptor; [6]) [nM]	EC50 (β2 adrenergic receptor; [7]) [nM]	further results
Cc1ccc([C@@H](O)CNC(C)(C)C)nc1C#N [Compound 03-8]	> 1000	> 1000	> 1000	> 1000	100 to 1000	100 to 1000	–
Cc1ccc([C@H](O)CNC(C)(C)C)nc1C#N [Compound 03-9]	10 to 100	10 to 100	10 to 100	100 to 1000	< 10	< 10	–
CC(C)NC[C@H](O)c1cccc(C2CC2)n1 [Compound 03-10]	10 to 100	10 to 100	–	–	< 10	< 10	Average pEC50 [Receptor subtype: Endogenous; Cell type: 1321N1] [1, 8]: B (B = 8-7); EC50 [1, 9]: 10 to 100 nM; Average pEC50 [Receptor subtype: B3-AR; Cell type: CHO-K1] (B3-AR): D (D < 6); EC50 (B3-AR; [10]): > 1000 nM
CC1(NC[C@H](O)c2cccc(C(F)(F)F)n2)CCC1 [Compound 03-11]	10 to 100	10 to 100	100 to 1000	> 1000	< 10	< 10	–
CC1(NC[C@H](O)c2cccc(C(F)(F)F)n2)CC1 [Compound 03-14]	10 to 100	10 to 100	100 to 1000	> 1000	10 to 100	10 to 100	–
COc1ccc(C[C@@H](C)NC[C@H](O)c2cccc(C(F)(F)F)n2)cc1 [Compound 03-15]	< 10	< 10	< 10	100 to 1000	< 10	< 10	–
Cc1cc([C@@H](O)CNC(C)(C)C)nc(C(F)(F)F)c1 [Compound 03-19]	100 to 1000	100 to 1000	100 to 1000	> 1000	10 to 100	10 to 100	–
O[C@@H](CNC1Cc2ccccc2C1)c1cccc(C(F)(F)F)n1 [Compound 03-21]	100 to 1000	100 to 1000	10 to 100	> 1000	10 to 100	10 to 100	–
O[C@@H](CNC1CCC1)c1cccc(C(F)(F)F)n1 [Compound 03-33]	–	< 10	10 to 100	> 1000	< 10	< 10	Average pEC50 [Receptor subtype: B1-AR; Cell type: CHO-K1 (HitHunter)] (β1-adrenergic receptor; CHO-K1 (HitHunter)): A (A > 8)
CC(C)NC[C@H](O)c1cccc(C(F)(F)F)n1 [Compound 03-35]	< 10	< 10	10 to 100	> 1000	10 to 100	10 to 100	–
CC(C)(C)NC[C@H](O)c1cccc(OC(F)(F)F)n1 [Compound 03-37]	10 to 100	10 to 100	< 10	100 to 1000	< 10	< 10	–
CC(C)(C)NC[C@H](O)c1cncc(C(F)(F)F)n1 [Compound 03-38]	–	100 to 1000	–	> 1000	10 to 100	10 to 100	Average pEC50 [Receptor subtype: B1-AR; Cell type: CHO-K1 (HitHunter)] (β1-adrenergic receptor; CHO-K1 (HitHunter)): C (C = <7-6); Average pEC50 [Receptor subtype: Endogenous; Cell type: 1321N1] [1, 8]: C (C = <7-6); EC50 [1, 9]: 100 to 1000 nM; EC50 (B3-AR; [10]): > 1000 nM
CC(C)(C)NC[C@H](O)c1cccc(C(F)F)n1 [Compound 03-44]	10 to 100	10 to 100	–	–	10 to 100	10 to 100	Average pEC50 [Receptor subtype: Endogenous; Cell type: 1321N1] [1, 8]: C (C = <7-6); EC50 [1, 9]: 100 to 1000 nM; Average pEC50 [Receptor subtype: B3-AR; Cell type: CHO-K1] (B3-AR): D (D < 6); EC50 (B3-AR; [10]): > 1000 nM
CC(C)(C)NC[C@H](O)c1ccnc(C(F)(F)F)n1 [Compound 03-45]	10 to 100	10 to 100	–	–	100 to 1000	100 to 1000	EC50 [1, 9]: < 10 nM; EC50 (B3-AR; [10]): < 10 nM
CC(C)(C)NC[C@@H](O)c1cccc(C2CCC2)n1 [Compound 03-162]	–	> 1000	100 to 1000	–	10 to 100	10 to 100	Average pEC50 [Receptor subtype: B1-AR; Cell type: CHO-K1 (HitHunter)] (β1-adrenergic receptor; CHO-K1 (HitHunter)): D (D < 6)
CC(C)(C)NCC(O)c1cc(C#N)cc(C(F)(F)F)n1 (stereo not shown) [Compound 03-181]	> 1000	> 1000	100 to 1000	–	100 to 1000	100 to 1000	–
CC(C)(C)NC[C@H](O)c1cccc(NC2CC2)n1 [Compound 03-189]	10 to 100	–	10 to 100	–	< 10	–	–
CC(C)(C)NC[C@H](O)c1cccc(NC2CCC2)n1 [Compound 03-190]	10 to 100	–	< 10	–	< 10	–	–

SMILES	EC50 (β1-adrenergic receptor; [2]) [nM]	EC50 (β1-adrenergic receptor; [3]) [nM]	EC50 [1, 4] [nM]	EC50 (B3-AR; [5]) [nM]	EC50 (β2 adrenergic receptor; [6]) [nM]	EC50 (β2 adrenergic receptor; [7]) [nM]	further results
CC(C)(C)NC[C@H](O)c1cccc(NC2CCCC2)n1 [Compound 03-191]	10 to 100	–	< 10	–	< 10	–	–
CC(C)Nc1cccc([C@@H](O)CNC(C)(C)C)n1 [Compound 03-192]	10 to 100	–	10 to 100	–	< 10	–	–
CC(C)(C)NC[C@H](O)c1cccc(Nc2ccccc2)n1 [Compound 03-193]	< 10	–	< 10	–	< 10	–	–
CC(C)(C)NC[C@H](O)c1cccc(Oc2ccccc2)n1 [Compound 03-195]	100 to 1000	–	10 to 100	–	10 to 100	–	–
CC(C)(C)NC[C@H](O)c1cccc(C2=CCCC2)n1 [Compound 03-197]	10 to 100	–	< 10	–	< 10	–	–
CC(C)(C)NC[C@H](O)c1cccc(C(C)(C)C)n1 [Compound 03-209]	< 10	–	< 10	–	< 10	–	–
Cn1cc(-c2cccc([C@@H](O)CNC(C)(C)C)n2)cn1 [Compound 03-215]	100 to 1000	–	10 to 100	–	< 10	–	–
CC(C)(C)NC[C@@H](O)c1cccc(-n2ccnc2)n1 [Compound 03-228]	10 to 100	–	< 10	–	< 10	–	–
CC(C)(C)NC[C@@H](O)c1cccc(Cl)n1 [Compound 03-230]	10 to 100	–	100 to 1000	–	10 to 100	–	–
CC(C)(C)NC[C@H](O)c1cccc(C2CCCC2)n1 [Compound 03-237]	10 to 100	–	< 10	–	< 10	–	–
C#Cc1cccc([C@H](O)CNC(C)(C)C)n1 [Compound 03-238]	100 to 1000	–	100 to 1000	–	10 to 100	–	–
C=CCc1ncccc1[C@@H](O)CNC(C)(C)C [Compound 03-243]	> 1000	–	100 to 1000	–	10 to 100	–	–
Cc1ccc([C@@H](O)CNC(C)(C)C)cn1 [Compound 03-248]	10 to 100	–	10 to 100	–	10 to 100	–	–
COc1ccc(C[C@@H](C)NC[C@H](O)c2ccc(C)nc2)cc1 [Compound 03-249]	< 10	–	< 10	–	< 10	–	–
COc1ccc(C[C@@H](C)NC[C@H](O)c2ccc(OC)nc2C)cc1 [Compound 03-253]	–	–	–	–	–	–	EC50 (β1-adrenergic receptor; Average pEC50 [Receptor subtype: B1-AR, Cell type: CHO-K1 (HitHunter)], CHO-K1 (HitHunter)): > 1000 nM; EC50 [1]: 100 to 1000 nM; EC50 (β2 adrenergic receptor; Average pEC50 [Receptor subtype: B2-AR, Cell type: CHO-K1 (HitHunter)], CHO-K1 (HitHunter)): 10 to 100 nM
COc1ccc(C[C@@H](C)NC[C@H](O)c2cccc(OC(F)(F)F)n2)cc1 [Compound 03-257]	10 to 100	–	< 10	–	< 10	–	–
Cc1ncc(Cl)cc1[C@@H](O)CNC(C)(C)C [Compound 03-267]	100 to 1000	–	100 to 1000	–	10 to 100	–	–
CC(C)(C)NC[C@H](O)c1cccc(NC2CC(F)C2)n1 (stereo partly shown) [Compound 03-272]	< 10	–	< 10	–	< 10	–	–
